Data reported in DBAASP.
Values after ≈ are worked out from the molar mass of the structure shown. One block for each compound: values may come before it.

Key:
Assay in all cases: ≥ marks a high value that may be exact or a test limit, other limits are often not marked, values filed in µg/mL are converted to µM
[1] = tested on: Streptococcus mutans ATCC 25175
[2] = tested on: Staphylococcus aureus ATCC 12600
[3] = tested on: Escherichia coli ATCC 25922
[4] = tested on: Pseudomonas aeruginosa ATCC 27853
[5] = tested on: Staphylococcus aureus ATCC 25923
[6] = tested on: Salmonella enterica subsp. enterica serovar Typhimurium ATCC 14028
Escherichia coli ML-35 = tested on: Escherichia coli ML-35
Bacillus megaterium = tested on: Bacillus megaterium
[7] = tested on: Pseudomonas aeruginosa PAO1
[8] = tested on: Pseudomonas aeruginosa 919
[9] = tested on: Pseudomonas aeruginosa 910
[10] = tested on: Pseudomonas aeruginosa 253
Micrococcus luteus A270 = tested on: Micrococcus luteus A270
Listeria innocua = tested on: Listeria innocua
Escherichia coli = tested on: Escherichia coli
Bacillus subtilis 168 = tested on: Bacillus subtilis 168
Pseudomonas aeruginosa = tested on: Pseudomonas aeruginosa
Staphylococcus aureus = tested on: Staphylococcus aureus
[11] = tested on: Candida albicans F7-39/IDE99
[12] = tested on: Micrococcus luteus CCM 144
Escherichia coli B = tested on: Escherichia coli B
Candida albicans = tested on: Candida albicans
[13] = tested on: Enterococcus faecalis ATCC 29212
[14] = tested on: Salmonella enterica serovar Typhimurium
[15] = tested on: Staphylococcus epidermidis
[16] = tested on: Pseudomonas aeruginosa H103
Escherichia coli UB1005 = tested on: Escherichia coli UB1005
[17] = tested on: Pseudomonas aeruginosa ATCC 9027
[18] = tested on: Bacillus cereus ATCC 11778
[19] = tested on: Escherichia coli ATCC 35218
Escherichia coli JW0013 = tested on: Escherichia coli JW0013

- MIC [7]: 4 µM (≈ 7.45 µg/mL)
- MIC [8]: 16 µM (≈ 29.8 µg/mL)
- MIC [9]: 4 µM (≈ 7.45 µg/mL)
- MIC [10]: 8 µM (≈ 14.9 µg/mL)
SMILES: CC[C@H](C)[C@H](N)C(=O)N[C@@H](CC(C)C)C(=O)N[C@@H](CCCCN)C(=O)N[C@@H](Cc1c[nH]c2ccccc12)C(=O)N[C@@H](CCCCN)C(=O)N[C@@H](CCCCN)C(=O)NCC(=O)N[C@@H](Cc1c[nH]c2ccccc12)C(=O)N[C@@H](Cc1c[nH]c2ccccc12)C(=O)N[C@@H](CCCCN)C(=O)N[C@@H](Cc1c[nH]c2ccccc12)C(=O)N[C@@H](Cc1ccccc1)C(=O)N[C@@H](CCCN=C(N)N)C(N)=O [ILKWKKGWWKWFR]

- MIC (Micrococcus luteus A270): ≥ 45 µM
- MIC (Listeria innocua): 11 µM (≈ 30.3 µg/mL)
- MIC (Escherichia coli): 11 µM (≈ 30.3 µg/mL)
SMILES: CC(C)C[C@H](NC(=O)[C@@H](NC(=O)[C@@H](NC(=O)[C@H](CC(C)C)NC(=O)[C@H](CC(C)C)NC(=O)[C@H](CO)NC(=O)[C@H](Cc1cnc[nH]1)NC(=O)[C@H](CO)NC(=O)[C@H](CC(C)C)NC(=O)[C@H](CC(C)C)NC(=O)[C@H](CCCCN)NC(=O)[C@H](Cc1ccccc1)NC(=O)[C@H](CC(N)=O)NC(=O)[C@@H](NC(=O)[C@@H]1CCCN1C(=O)[C@H](CC(=O)O)NC(=O)[C@@H](NC(=O)[C@H](CCCN=C(N)N)NC(=O)[C@H](CC(C)C)NC(=O)[C@H](CCCCN)NC(=O)[C@H](Cc1cnc[nH]1)NC(=O)[C@H](C)NC(=O)[C@H](Cc1cnc[nH]1)NC(=O)[C@@H](N)CC(C)C)C(C)C)C(C)C)C(C)C)[C@@H](C)O)C(=O)O [LHAHKLRVDPVNFKLLSHSLLVTL]

- MIC (Escherichia coli JW0013): 2.03 µM (≈ 4.8 µg/mL)
SMILES: CC[C@H](C)[C@H](NC(=O)[C@H](CCCN=C(N)N)NC(=O)[C@H](CCCN=C(N)N)NC(=O)[C@@H]1CCCN1C(=O)[C@@H]1CCCN1C(=O)[C@H](CCCN=C(N)N)NC(=O)[C@@H]1CCCN1C(=O)[C@H](CCSC)NC(=O)[C@@H]1CCCN1C(=O)[C@H](CC(C)C)NC(=O)[C@H](Cc1ccc(O)cc1)NC(=O)[C@@H]1CCCN1C(=O)[C@@H]1CCCN1C(=O)[C@H](CCCCN)NC(=O)[C@H](CC(=O)O)NC(=O)[C@@H](N)C(C)C)C(=O)N[C@@H](Cc1ccc(O)cc1)C(=O)N[C@@H](CC(N)=O)C(=O)N[C@@H](CCCN=C(N)N)C(N)=O [VDKPPYLPMPRPPRRIYNR]

- MIC (Escherichia coli JW0013): 0.959 µM (≈ 2.4 µg/mL)
SMILES: CC[C@H](C)[C@H](NC(=O)[C@H](CCCN=C(N)N)NC(=O)[C@H](CCCN=C(N)N)NC(=O)[C@@H]1CCCN1C(=O)[C@@H]1CCCN1C(=O)[C@H](CCCN=C(N)N)NC(=O)[C@H](CCCN=C(N)N)NC(=O)[C@H](CCCN=C(N)N)NC(=O)[C@@H]1CCCN1C(=O)[C@H](CC(C)C)NC(=O)[C@H](CCCN=C(N)N)NC(=O)[C@@H]1CCCN1C(=O)[C@H](CCCN=C(N)N)NC(=O)[C@H](CCCCN)NC(=O)[C@H](CC(=O)O)NC(=O)[C@@H](N)C(C)C)C(=O)N[C@@H](Cc1ccc(O)cc1)C(=O)N[C@@H](CC(N)=O)C(=O)N[C@@H](CCCN=C(N)N)C(N)=O [VDKRPRLPRRRPPRRIYNR]

The remaining lines, values behind:

SMILES: CC[C@H](C)[C@H](NC(=O)[C@H](C)NC(=O)CNC(=O)[C@H](Cc1ccccc1)NC(=O)[C@H](CC(C)C)NC(=O)CN)C(=O)N[C@@H](C)C(=O)NCC(=O)N[C@@H](Cc1ccccc1)C(=O)N[C@H](C(=O)N[C@@H](CCCCN)C(=O)N[C@@H](CCCCN)C(=O)NCC(=O)N[C@@H](Cc1c[nH]c2ccccc12)C(=O)N[C@@H](CCCCN)C(=O)NCC(=O)N[C@@H](CCSC)C(=O)N[C@H](C(=O)N[C@@H](CCCCN)C(=O)NCC(N)=O)C(C)C)[C@@H](C)CC [GLFGAIAGFIKKGWKGMVKG]
- MIC [1]: 1.9 µM (≈ 3.92 µg/mL)
- MIC [2]: 3.8 µM (≈ 7.85 µg/mL)
- MIC [3]: 7.6 µM (≈ 15.7 µg/mL)
- MIC [4]: 7.6 µM (≈ 15.7 µg/mL)

SMILES: CC[C@H](C)[C@H](NC(=O)[C@H](CCCCN)NC(=O)[C@H](CCCCN)NC(=O)[C@H](CC(C)C)NC(=O)[C@H](CCCCN)NC(=O)[C@H](CCC(N)=O)NC(=O)[C@H](CCCCN)NC(=O)[C@@H](NC(=O)[C@H](CCCCN)NC(=O)[C@H](CC(N)=O)NC(=O)[C@H](CCCN=C(N)N)NC(=O)[C@H](Cc1ccccc1)NC(=O)[C@H](CCCCN)NC(=O)[C@H](CCCN=C(N)N)NC(=O)[C@H](CC(C)C)NC(=O)[C@H](CCCN=C(N)N)NC(=O)[C@H](CCCCN)NC(=O)[C@H](CCCN=C(N)N)NC(=O)[C@H](CC(C)C)NC(=O)CN)[C@@H](C)CC)C(=O)O [GLRKRLRKFRNKIKQKLKKI]
- MIC [3]: 4 µM (≈ 10.2 µg/mL)
- MIC [5]: 4 µM (≈ 10.2 µg/mL)
- MIC [6]: 2 µM (≈ 5.1 µg/mL)
- MIC [4]: 0.5 µM (≈ 1.28 µg/mL)
- MIC (Escherichia coli ML-35): 2 µM (≈ 5.1 µg/mL)
- MIC (Bacillus megaterium): 4 µM (≈ 10.2 µg/mL)

SMILES: CC[C@H](C)[C@H](N)C(=O)N[C@@H](CC(C)C)C(=O)N[C@@H](CCCCN)C(=O)N[C@@H](Cc1c[nH]c2ccccc12)C(=O)N[C@@H](CCCCN)C(=O)N[C@@H](CCCN=C(N)N)C(=O)N[C@@H](CCCCN)C(=O)N[C@@H](Cc1c[nH]c2ccccc12)C(=O)N[C@@H](Cc1c[nH]c2ccccc12)C(=O)N[C@@H](CCCCN)C(=O)N[C@@H](Cc1c[nH]c2ccccc12)C(=O)N[C@@H](CCCN=C(N)N)C(=O)N[C@@H](CCCN=C(N)N)C(N)=O [ILKWKRKWWKWRR]
- MIC [7]: 1 µM (≈ 1.97 µg/mL)
- MIC [8]: 16 µM (≈ 31.5 µg/mL)
- MIC [9]: 2 µM (≈ 3.94 µg/mL)
- MIC [10]: 4 µM (≈ 7.88 µg/mL)

SMILES: CC[C@H](C)[C@H](NC(=O)[C@H](C)NC(=O)CNC(=O)[C@H](Cc1c[nH]c2ccccc12)NC(=O)[C@H](CCCCN)NC(=O)[C@@H](N)CC(C)C)C(=O)N[C@@H](CC(C)C)C(=O)N[C@@H](CCCCN)C(=O)N[C@@H](Cc1cnc[nH]1)C(=O)N[C@H](C(=O)N[C@H](C(=O)N[C@@H](CCCCN)C(N)=O)[C@@H](C)CC)[C@@H](C)CC [LKWGAILKHIIK]
- MIC (Bacillus subtilis 168): 3.7 µM (≈ 5.25 µg/mL)
- MIC (Pseudomonas aeruginosa): 46.7 µM (≈ 66.3 µg/mL)
- MIC (Staphylococcus aureus): 11.7 µM (≈ 16.6 µg/mL)
- MIC [11]: 5.1 µM (≈ 7.24 µg/mL)
- MIC [12]: 3.7 µM (≈ 5.25 µg/mL)
- MIC (Escherichia coli B): 3.7 µM (≈ 5.25 µg/mL)

SMILES: CC(C)C[C@H](NC(=O)[C@H](C)NC(=O)[C@H](C)NC(=O)CNC(=O)[C@H](Cc1c[nH]c2ccccc12)NC(=O)[C@H](CC(N)=O)NC(=O)[C@@H](N)CC(C)C)C(=O)N[C@@H](CCCCN)C(=O)N[C@@H](Cc1cnc[nH]1)C(=O)N[C@@H](C)C(=O)N[C@@H](C)C(=O)N[C@@H](CCCCN)C(N)=O [LNWGAALKHAAK]
- MIC (Bacillus subtilis 168): ≥ 100 µM
- MIC (Pseudomonas aeruginosa): > 100 µM
- MIC (Staphylococcus aureus): > 100 µM
- MIC [11]: ≥ 100 µM
- MIC [12]: ≥ 100 µM
- MIC (Escherichia coli B): ≥ 100 µM

SMILES: CC[C@H](C)[C@H](NC(=O)[C@H](CCCN=C(N)N)NC(=O)[C@H](Cc1c[nH]c2ccccc12)NC(=O)[C@H](CC(C)C)NC(=O)[C@@H](N)CCCN=C(N)N)C(=O)N[C@H](C(=O)N[C@H](C(=O)N[C@H](C(=O)N[C@@H](CCCN=C(N)N)C(=O)N[C@H](C(=O)N[C@@H](C)C(=O)N[C@@H](CCCN=C(N)N)C(N)=O)C(C)C)[C@@H](C)CC)C(C)C)C(C)C [RLWRIVVIRVAR]
- MIC (Candida albicans): 5.21 µM (≈ 7.99 µg/mL)
- MIC [7]: 16 µM (≈ 24.6 µg/mL)
- MIC [13]: 1.3 µM (≈ 2 µg/mL)
- MIC [5]: 1.3 µM (≈ 2 µg/mL)
- MIC [14]: 5.21 µM (≈ 7.99 µg/mL)
- MIC [8]: ≥ 32 µM
- MIC [15]: 0.325 µM (≈ 0.5 µg/mL)
- MIC [9]: ≥ 32 µM
- MIC [16]: 5.21 µM (≈ 7.99 µg/mL)
- MIC (Escherichia coli UB1005): 1.3 µM (≈ 2 µg/mL)
- MIC [10]: ≥ 32 µM

SMILES: CC(C)C[C@H](NC(=O)[C@H](CC(C)C)NC(=O)[C@@H](N)[C@@H](C)O)C(=O)N[C@@H](CCCCN)C(=O)N[C@@H](CCCCN)C(=O)N[C@H](C(=O)N[C@@H](CC(C)C)C(=O)N[C@@H](CCCCN)C(=O)N[C@@H](C)C(=O)N[C@@H](C)C(=O)N[C@@H](C)C(N)=O)C(C)C [TLLKKVLKAAA]
- MIC [17]: > 50 µM
- MIC [18]: ≥ 50 µM
- MIC [5]: > 50 µM
- MIC [19]: ≥ 50 µM
